In PMC10563062 (2023):

Tested on: d(AAGGG)4 (DNA, G4) AAGGGAAGGGAAGGGAAGGG
Experiment: UV-vis absorption titration (Soret band); CD
Details: 100 mM KCl; 10 mM Tris-HCl, 0.1 mM EDTA, pH 7.4; 7 μM TMPyP4; 68% hypochromicity, 16 nm red shift

binding: yes
SMILES: C[n+]1ccc(-c2c3nc(c(-c4cc[n+](C)cc4)c4ccc([nH]4)c(-c4cc[n+](C)cc4)c4nc(c(-c5cc[n+](C)cc5)c5ccc2[nH]5)C=C4)C=C3)cc1
